For one test, the target named is PI3Kalpha (Homo sapiens (Human), UniProt P42336). Nature of the test: HTRF PI3K biochemical assay, alpha isoform (selectivity versus PI3Kalpha). Particulars: relative ratio (PI3K-alpha IC50 value/PI3K-delta IC50 value); form screened: Neutral. In a few lines: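 Uses recombinant PI3Kalpha at 0.5 nM with 100 uM ATP and 5 uM PIP2, after a 15 min RT compound pre-incubation and a 1 h RT reaction. PIP3 product displaces biotin-PIP3 from GST-GRP1 PH domain, read as HTRF 665/620 ratio. IC50 from a 10-point dose response, corrected via a PIP3 standard curve.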
On the technique in general: In TR-FRET formats the signal depends on donor and acceptor labels being close together.

The next test has as its target PI3Kdelta (Homo sapiens (Human), UniProt O00329). The experiment in a line: HTRF PI3K biochemical assay, delta isoform. Particulars: 0.3 nM enzyme, 100 uM ATP, 5 uM PIP2, form screened: Neutral. An outline of the steps:
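0.3 nM PI3Kδ, pre-incubated 15 min at RT with compound (10-point 3-fold series), then reacted 1 h at RT with 100 uM ATP and 5 uM PIP2. After EDTA stop, PIP3 product detected by HTRF competition (GST-GRP1-PH, biotin-PIP3, Eu anti-GST, SA-APC), read 665/620 nm after 1 h.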

Sequence of PI3Kalpha (P42336 whole entry, the tested form may be a part, canonical isoform): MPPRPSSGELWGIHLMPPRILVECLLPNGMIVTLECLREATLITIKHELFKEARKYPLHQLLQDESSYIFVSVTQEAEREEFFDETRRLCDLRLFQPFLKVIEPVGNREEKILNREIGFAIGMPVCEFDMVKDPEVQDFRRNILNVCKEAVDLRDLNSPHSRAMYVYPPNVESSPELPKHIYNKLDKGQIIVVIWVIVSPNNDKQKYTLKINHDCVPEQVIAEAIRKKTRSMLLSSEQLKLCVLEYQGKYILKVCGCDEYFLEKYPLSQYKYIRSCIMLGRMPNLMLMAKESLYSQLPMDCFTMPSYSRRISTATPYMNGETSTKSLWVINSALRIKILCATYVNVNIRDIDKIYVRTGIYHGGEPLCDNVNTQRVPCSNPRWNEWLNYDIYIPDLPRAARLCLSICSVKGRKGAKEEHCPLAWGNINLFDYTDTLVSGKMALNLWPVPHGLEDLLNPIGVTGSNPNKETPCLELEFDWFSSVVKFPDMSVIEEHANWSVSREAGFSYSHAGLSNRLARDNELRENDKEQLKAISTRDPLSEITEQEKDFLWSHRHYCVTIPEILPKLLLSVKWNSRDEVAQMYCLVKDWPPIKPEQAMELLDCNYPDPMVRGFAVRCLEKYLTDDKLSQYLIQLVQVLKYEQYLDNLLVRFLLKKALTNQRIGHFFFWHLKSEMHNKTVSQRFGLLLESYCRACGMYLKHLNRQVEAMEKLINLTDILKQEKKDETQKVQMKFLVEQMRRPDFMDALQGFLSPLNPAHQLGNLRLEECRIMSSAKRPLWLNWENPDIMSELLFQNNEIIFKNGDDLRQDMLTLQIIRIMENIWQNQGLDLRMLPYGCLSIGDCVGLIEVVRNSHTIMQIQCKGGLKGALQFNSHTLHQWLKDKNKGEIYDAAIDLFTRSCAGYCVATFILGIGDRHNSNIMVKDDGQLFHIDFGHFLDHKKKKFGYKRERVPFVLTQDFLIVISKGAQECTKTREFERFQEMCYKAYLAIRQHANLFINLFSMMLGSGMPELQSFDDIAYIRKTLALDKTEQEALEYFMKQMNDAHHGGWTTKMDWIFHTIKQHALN
Sequence of PI3Kalpha (P27986 whole entry partner, the tested form may be a part, canonical isoform): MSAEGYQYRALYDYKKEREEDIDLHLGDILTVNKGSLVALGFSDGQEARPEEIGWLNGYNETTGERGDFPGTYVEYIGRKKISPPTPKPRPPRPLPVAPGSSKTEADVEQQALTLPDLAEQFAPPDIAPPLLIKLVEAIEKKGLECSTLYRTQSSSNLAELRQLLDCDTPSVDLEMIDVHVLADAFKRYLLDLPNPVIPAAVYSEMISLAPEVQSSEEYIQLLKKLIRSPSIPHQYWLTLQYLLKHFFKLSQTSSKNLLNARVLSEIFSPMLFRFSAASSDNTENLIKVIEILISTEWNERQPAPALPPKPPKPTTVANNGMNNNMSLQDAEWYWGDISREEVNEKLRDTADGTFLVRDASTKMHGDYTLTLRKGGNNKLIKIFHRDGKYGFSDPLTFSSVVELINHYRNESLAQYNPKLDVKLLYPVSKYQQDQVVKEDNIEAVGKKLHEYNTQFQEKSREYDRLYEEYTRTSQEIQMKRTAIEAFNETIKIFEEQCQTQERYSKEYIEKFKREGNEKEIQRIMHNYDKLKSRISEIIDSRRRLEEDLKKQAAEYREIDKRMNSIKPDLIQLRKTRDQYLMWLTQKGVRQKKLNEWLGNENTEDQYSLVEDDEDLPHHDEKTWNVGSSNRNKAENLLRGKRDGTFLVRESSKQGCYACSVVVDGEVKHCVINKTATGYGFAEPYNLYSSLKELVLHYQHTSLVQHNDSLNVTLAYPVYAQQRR
Sequence of PI3Kdelta (O00329 whole entry, canonical isoform): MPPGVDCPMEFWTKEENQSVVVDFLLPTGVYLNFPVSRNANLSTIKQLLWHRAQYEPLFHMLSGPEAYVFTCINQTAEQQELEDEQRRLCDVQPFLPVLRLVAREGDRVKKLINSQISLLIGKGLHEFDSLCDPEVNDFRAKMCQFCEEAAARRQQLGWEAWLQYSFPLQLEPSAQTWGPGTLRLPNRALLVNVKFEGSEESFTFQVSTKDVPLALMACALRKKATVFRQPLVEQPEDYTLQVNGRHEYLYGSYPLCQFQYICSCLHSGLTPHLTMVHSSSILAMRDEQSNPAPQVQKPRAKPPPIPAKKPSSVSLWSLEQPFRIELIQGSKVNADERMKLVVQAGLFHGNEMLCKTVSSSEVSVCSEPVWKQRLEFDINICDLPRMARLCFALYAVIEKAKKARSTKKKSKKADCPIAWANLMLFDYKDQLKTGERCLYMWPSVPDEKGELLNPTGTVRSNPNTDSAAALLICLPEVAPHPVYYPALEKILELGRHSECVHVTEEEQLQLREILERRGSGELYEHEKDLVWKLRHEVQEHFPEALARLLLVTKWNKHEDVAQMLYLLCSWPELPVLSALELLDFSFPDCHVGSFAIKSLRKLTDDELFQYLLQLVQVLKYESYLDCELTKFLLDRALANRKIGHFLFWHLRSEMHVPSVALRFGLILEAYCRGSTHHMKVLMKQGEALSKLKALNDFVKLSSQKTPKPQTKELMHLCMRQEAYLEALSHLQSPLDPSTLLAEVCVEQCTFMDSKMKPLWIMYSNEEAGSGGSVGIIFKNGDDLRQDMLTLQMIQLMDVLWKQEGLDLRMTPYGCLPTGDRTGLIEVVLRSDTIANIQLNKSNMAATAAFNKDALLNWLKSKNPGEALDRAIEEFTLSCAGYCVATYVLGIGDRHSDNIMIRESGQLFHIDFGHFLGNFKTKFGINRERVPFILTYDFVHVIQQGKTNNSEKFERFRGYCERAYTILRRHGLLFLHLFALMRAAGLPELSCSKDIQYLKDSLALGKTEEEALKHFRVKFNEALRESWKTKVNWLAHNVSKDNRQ
Sequence of PI3Kdelta (P27986 whole entry partner, canonical isoform): as the sequence (P27986 whole entry partner, the tested form may be a part, canonical isoform) above

In the case of `CC[C@H](Nc1ncnc2c1nc(-c1cnc(C)nc1)n2CC)C(=O)N1C[C@H](C)O[C@@H](C)C1` (stereo in doubt) [Compound 2-36, N-[(1S)-1-{[(trans)-2,6-dimethylmorpholin-4-yl]carbonyl}propyl]-9-ethyl-8-(2-methylpyrimidin-5-yl)-9H-purin-6-amine], the “Selectivity versus PI3Kalpha” value at PI3Kalpha is on record as greater than 10. At PI3Kdelta, half-maximal inhibition (IC50) required 9.1 nM.
Take `CC[C@H](Nc1ncnc2c1nc(-c1cnc(C)nc1)n2CC)C(=O)N1CC(=O)N(C)C(C)C1` (single isomer, unassigned) [Compound 4-6, (S or R)-4-[(2S)-2-{[9-ethyl-8-(2-methylpyrimidin-5-yl)-9H-purin-6-yl]amino}butanoyl]-1,6-dimethylpiperazin-2-one]: the “Selectivity versus PI3Kalpha” value on PI3Kalpha is listed as greater than 10. Besides, the IC50 (commonly the midpoint of a concentration-inhibition curve) against PI3Kdelta was found to be 26 nM.
`CC[C@H](Nc1ncnc2c1nc(-c1cnc(C)nc1)n2CC)C(=O)N1CCOC(COC)C1` (stereo partly drawn) [Compound 2-35, 9-ethyl-N-[(1S)-1-{[2-(methoxymethyl)morpholin-4 yl]carbonyl}propyl]-8-(2-methylpyrimidin-5-yl)-9H-purin-6-amine]: the “Selectivity versus PI3Kalpha” value on PI3Kalpha was greater than 10. The compound further returned an IC50 against PI3Kdelta of 39 nM.
As to `CCn1c(-c2cnc(C)nc2)nc2c(N[C@H](C(=O)N3C[C@@H](C)O[C@@H](C)C3)C(C)C)ncnc21` [Compound 2-49, N-[(1S)-1-{[(cis)-2,6-dimethylmorpholin-4-yl]carbonyl}-2-methylpropyl]-9-ethyl-8-(2-methylpyrimidin-5-yl)-9H-purin-6-amine], the “Selectivity versus PI3Kalpha” value on PI3Kalpha is greater than 10. In addition, the IC50 at PI3Kdelta was found to be 4.1 nM.
Take `CC[C@H](Nc1ncnc2c1nc(-c1cnc(C)nc1)n2CC)C(=O)N1CCS(=O)(=O)CC1` [Compound 2-8, N-{(1S)-1-[(1,1-dioxidothiomorpholin-4-yl)carbonyl]propyl}-9-ethyl-8-(2-methylpyrimidin-5-yl)-9H-purin-6-amine]: on PI3Kalpha, the “Selectivity versus PI3Kalpha” value is on record as greater than 10. Further, the IC50 against PI3Kdelta is 31 nM.
Turning to `CC[C@H](Nc1ncnc2c1nc(-c1cnc(C)nc1)n2CC)C(=O)N1C[C@@H](C)C(F)(F)[C@@H](C)C1` [Compound 4-4, N-[(1S)-1-{[cis-4,4-difluoro-3,5-dimethylpiperidin-1-yl]carbonyl}propyl]-9-ethyl-8-(2-methylpyrimidin-5-yl)-9H-purin-6-amine], the “Selectivity versus PI3Kalpha” value at PI3Kalpha is given as greater than 10. Moreover, the IC50 against PI3Kdelta was 4.8 nM.
Turning to `CC[C@H](Nc1ncnc2c1nc(-c1cnc(C)nc1)n2CC)C(=O)N1CC(C(F)F)C1` [Compound 2-11, N-[(1S)-1-{[3-(difluoromethyl)azetidin-1-yl]carbonyl}propyl]-9-ethyl-8-(2-methylpyrimidin-5-yl)-9H-purin-6-amine], the “Selectivity versus PI3Kalpha” value on PI3Kalpha is greater than 10. This compound showed an IC50 at PI3Kdelta of 60 nM.
As for `CC[C@H](Nc1ncnc2c1nc(-c1cnc(C)nc1)n2CC)C(=O)N1CCOCC12CCC2` [Compound 2-27, 9-ethyl-8-(2-methylpyrimidin-5-yl)-N-[(1S)-1-(8-oxa-5-azaspiro[3.5]non-5-ylcarbonyl)propyl]-9H-purin-6-amine], the “Selectivity versus PI3Kalpha” value at PI3Kalpha is given as greater than 10. The compound also gave an IC50 against PI3Kdelta of 11 nM.
In the case of `CC[C@H](Nc1ncnc2c1nc(-c1cnc(C)nc1)n2CC)C(=O)N1CC(OC)C1` [Compound 2-17, 9-ethyl-N-{(1S)-1-[(3-methoxyazetidin-1-yl)carbonyl]propyl}-8-(2-methylpyrimidin-5-yl)-9H-purin-6-amine], the “Selectivity versus PI3Kalpha” value at PI3Kalpha is recorded as greater than 10. Moreover, it took 74 nM to reach half-maximal inhibition against PI3Kdelta (IC50).
`CCn1c(-c2cnc(C)nc2)nc2c(N[C@@H](C)CC(=O)N3CCCC3)ncnc21` [Compound 2-59, 9-ethyl-N-[(1S)-1-methyl-3-oxo-3-pyrrolidin-1-ylpropyl]-8-(2-methylpyrimidin-5-yl)-9H-purin-6-amine]: the “Selectivity versus PI3Kalpha” value on PI3Kalpha was greater than 10. The compound also yielded an IC50 at PI3Kdelta of 63 nM.
As for `CCn1c(-c2cnc(C)nc2)nc2c(N[C@H](C(=O)N3C[C@@H](C)O[C@@H](C)C3)c3ccccc3)ncnc21` [Compound 2-43, N-{(1S)-2-[(cis)-2,6-dimethylmorpholin-4-yl]-2-oxo-1-phenylethyl}-9-ethyl-8-(2-methylpyrimidin-5-yl)-9H-purin-6-amine], the “Selectivity versus PI3Kalpha” value on PI3Kalpha is greater than 10. At PI3Kdelta, this compound gave an IC50 of 87 nM.
As for `CC[C@H](Nc1ncnc2c1nc(-c1cnc(C)nc1)n2CC)C(=O)N1CCOC(C)(C)C1` [Compound 2-33, N-{(1S)-1-[(2,2-dimethylmorpholin-4-yl)carbonyl]propyl}-9-ethyl-8-(2-methylpyrimidin-5-yl)-9H-purin-6-amine], the “Selectivity versus PI3Kalpha” value on PI3Kalpha is recorded as greater than 10. For the same compound, half-maximal inhibition against PI3Kdelta (IC50) required 9.8 nM.
As to `CC[C@H](Nc1ncnc2c1nc(-c1cnc(C)nc1)n2CC)C(=O)N1CC[C@@H]2CCCC[C@@H]2C1` [Compound 2-20, 9-ethyl-8-(2-methylpyrimidin-5-yl)-N-{(1S)-1-[(cis)-octahydroisoquinolin-2(1H)-ylcarbonyl]propyl}-9H-purin-6-amine], the “Selectivity versus PI3Kalpha” value at PI3Kalpha is reported as greater than 10. On PI3Kdelta, this compound showed an IC50 of 14 nM.
The matching figures for `CCn1ncc(-c2nc3c(N[C@H](Cc4ccccc4)C(=O)N4CCOCC4)ncnc3n2C)c1C` [Compound 2-1, N-[(1R)-1-benzyl-2-morpholin-4-yl-2-oxoethyl]-8-(1-ethyl-5-methyl-1H-pyrazol-4-yl)-9-methyl-9H-purin-6-amine]: greater than 10 and 15 nM.
Turning to `CC[C@H](Nc1ncnc2c1nc(-c1cnc(C)nc1)n2CC)C(=O)N1CC(=O)NC(C)(C)C1` [Compound 4-7, 4-[(2S)-2-{[9-ethyl-8-(2-methylpyrimidin-5-yl)-9H-purin-6-yl]amino}butanoyl]-6,6-dimethylpiperazin-2-one], the “Selectivity versus PI3Kalpha” value at PI3Kalpha is recorded as greater than 10. On PI3Kdelta, the IC50 is 19 nM.
Consider `CC[C@H](Nc1ncnc2c1nc(-c1cnc(C)nc1)n2CC)C(=O)N1CCOCC1C(C)C` (stereo partly drawn) [Compound 2-32, 9-ethyl-N-[(1S)-1-{[3-(1-methylethyl)morpholin-4-yl]carbonyl}propyl]-8-(2-methylpyrimidin-5-yl)-9H-purin-6-amine], for which the “Selectivity versus PI3Kalpha” value at PI3Kalpha is reported as greater than 10. Moreover, at PI3Kdelta, half-maximal inhibition (IC50) required 83 nM.

The values are drawn from US10221178B2, “Purine inhibitors of human phosphatidylinositol 3-kinase delta” (MERCK SHARP & DOHME CORP., priority 2015, dated 2019).
